Measured values taken from patent US11326126B2, “High performing, high impact bloom accord” (International Flavors & Fragrances Inc., priority 2016, dated 2022).

Columns and labels:
Assay in all cases: Antibacterial activity
Type in all cases: cell-based
[1] = tested on: e. coli; conditions: against e. coli
Description: (§1) The fragrance accords can contain antibacterial ingredients described above. See U.S. Pat. No. 6,495,512 for a list of suitable antibacterial ingredients.

[2] = tested on: s. aureos; conditions: against s. aureos
Description: as §1

[3] = tested on: e. hirae; conditions: against e. hirae
Description: as §1

Measured: antibacterial activity

C=CC(C)(O)CCC=C(C)C (stereo not drawn) [3,7-dimethylocta-1,6-dien-3-ol]
high antibacterial activity: [1] | [2] | [3]

COc1ccc(C)cc1 [1-methoxy-4-methylbenzene]
high antibacterial activity: [1] | [2] | [3]
